Patent publication US8518419B2, “Method of treating diabetes” (Garvan Institute of Medical Research, priority 2006, dated 2013)
Entries after “also recorded” stand apart in the source; their conditions may differ.

Tests used:
diabetic recipient mouse = assay: Mouse islet transplantation into streptozotocin-diabetic mice; format: in vivo; settings: mouse islets cultured with 125 μM DFO 2 hours before transplantation, 1 donor:1 recipient, followed 28 days
Method: Islets were isolated from control mice and cultured with either control media or control media plus 125 μM DFO under normoxic conditions or in control media under hypoxic conditions (5% O2) for 2 hours before transplantation. All the islets from 1 donor mouse were transplanted into 1 recipient mouse which had been rendered diabetic (random glucose>22 mM) by streptozotocin treatment.
Transplant recipients were followed for 28 days, at which time nephrectomy was performed to confirm recurrence of diabetes.

human islets = assay: Insulin release of human islets at low and high glucose; format: cell-based; settings: DFO 4 hours, low (5 mM) and high (11 mM) glucose
Method: The present inventors were interested to determine whether DFO was beneficial for function of human islets. Islets were isolated from people with normal glucose tolerance and treated with control media or media supplemented with DFO for 4 hours, and insulin release subsequently measured at low (5 mM) and high (11 mM) glucose concentrations.

Min6 cells [1] = assay: Gene expression in Min6 cells by real-time PCR; format: cell-based, mouse
Method: Human pancreatic islets were purified from seven normoglycemic subjects using the modified Ricordi method (Ricordi et al., 1988) as previously described (Gunton et al., 2005). The subjects are described in (Gunton et al., 2005), and were matched for age and body-mass-index. Gene expression was measured by real-time-PCR and was performed in a two-step reaction using the Invitrogen RT-for-PCR kit. The second step was performed in a fluorescent temperature cycler (ABI-Prism 7700 Sequence Detection System, Applied Biosystems) with LightCycler-RNA Master SYBR-Green-I (Roche, Mannheim, Germany) and specific primers for each of the genes (sequences available on request). Every plate included a control gene (TATA-box binding protein/TBP) for every subject. Results were analysed by unpaired t-test.
In separate experiments, treated cells were lysed, and RNA isolated for real-time-PCR.
Following treatment with HIF-1α RNAi, the present inventors measured expression of genes in the maturity onset diabetes of the young (MODY) family, insulin-signalling and glucose-uptake and glycolytic genes by real-time PCR. […] In the insulin signaling pathway, HIF-1α knockdown decreased insulin-receptor substrate (IRS)-2 mRNA (FIG. 3E).
Min6 cells were treated with DFO at the doses indicated for 4 hours.

Min6 cells [2] = assay: Measurement of intracellular ATP concentrations; format: cell-based, mouse; settings: DFO treatment
Method: ATP concentrations were measured in islets and in Min6 cells following exposure to low (1 mM) or high glucose (25 mM) for 30 minutes. At the 30 minute timepoint, cells were placed on ice, washed twice in ice-cold PBS and lysed and ATP was measured using a kit purchased from Roche, according to the manufacturer's instructions.

diabetic SCID mice = assay: Minimal mass human islet transplantation into diabetic SCID mice; format: in vivo, mouse; settings: human islets
Method: Human pancreatic islets were isolated from normal glucose tolerant donors as previously described (Gunton et al., 2005). Islets were transplanted under the left kidney capsule of SCID mice which had been rendered diabetic by injection of Alloxan at 95 mg/kg intravenously. Islets were transplanted in adequate mass (2000 IEQ per mouse), or minimal mass (600 IEQ per mouse). In each of the islet isolations, 2000 control-treated IEQ per mouse was adequate to cure diabetes. As expected, 600 control-treated IEQ per mouse was not adequate to control glucose at day 28 post-transplant in any mouse. […]

Min6 cells [3] = assay: Glucose-stimulated insulin secretion (GSIS) in Min6 cells; format: cell-based, mouse; settings: DFO treatment

With CC(=O)N(O)CCCCCNC(=O)CCC(=O)N(O)CCCCCNC(=O)CCC(=O)N(O)CCCCCN [DFO, desferrioxamine] the “average glucose after transplantation” value (diabetic recipient mouse) was 11.4 mM, the “insulin release (GSIS) of human islets” value (human islets) was “markedly increased; also recorded: markedly improved GSIS” and the “expression of ARNT” value (Min6 cells [1]; DFO 4 hours) was “did not alter expression of the house-keeping genes TATA-box binding protein (TBP) or transthyretin, or (B) increase expression of ARNT”. For the same molecule, the “expression of housekeeping genes TATA-box binding protein (TBP) and transthyretin” value (Min6 cells [1]; DFO 4 hours) was “did not increase expression; also recorded: did not alter expression”, the “expression of mRNAs for Akt2, GLUT1, GLUT2, HNF4α, IRS2 and phosphoglucomutase (PGM)” value (Min6 cells [1]; DFO 4 hours) was “dose-dependently increased expression; also recorded: significantly increased expression” and the “expression of HNF1α, HNF1β and insulin receptor” value (Min6 cells [1]; DFO 4 hours (data not shown)) was “did not alter”. For the same molecule, the “HIF-1α mRNA expression” value (Min6 cells [1]; highest dose of DFO, 4 hours) was “small but significant increase; also recorded: showed increased expression”, the ATP generation (Min6 cells [2]) was “increased ATP generation; also recorded: increased ATP concentrations” and the “success rate following transplant of 600 IEQ” value (diabetic SCID mice; DFO 125 μM for 4 hours pre-transplantation, day 28) was 75%. The “cure of diabetes following transplantation of 600 IEQ” value (diabetic SCID mice; DFO 125 μmol/L prior to transplantation, n=8) was 75% and the “glucose stimulated insulin secretion (GSIS)” value (Min6 cells [3]) was “substantial increase in GSIS”.
